Test results: the supplement of paper PMC10307832

Key:
Assay in all cases: relative viability (nuclei count vs DMSO), 5 days (fraction); higher = more cells survive
[1] = compound: CC(=O)Nc1cccc(-n2c(=O)n(C3CC3)c(=O)c3c(Nc4ccc(I)cc4F)n(C)c(=O)c(C)c32)c1 [Trametinib] + Cc1nc(Nc2ncc(C(=O)Nc3c(C)cccc3Cl)s2)cc(N2CCN(CCO)CC2)n1 [Dasatinib] (partner 0.075 µM)
Method in brief: (§1)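 Lung cancer cell lines, seeded in 1536-well plates, were treated the following day by pin tool with a single drug or with five library-drug doses (not always all listed) in √10 steps on top of a fixed anchor-drug dose. Cells were fixed and nuclei stained in one step after 5 days, and nuclei were counted. Relative viability is the nuclei count for treated wells divided by that for vehicle wells, reported as medians of duplicate plates.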

[2] = compound: CN1C=C(C2=CC=CC=C21)/C=C\3/C4=C(C=CC=N4)NC3=O + O=C(CCCCCCC(=O)Nc1ccccc1)NO [Vorinostat] (partner 1 µM)
Method in brief: as §1

[3] = compound: CC(=O)Nc1cccc(-n2c(=O)n(C3CC3)c(=O)c3c(Nc4ccc(I)cc4F)n(C)c(=O)c(C)c32)c1 [Trametinib] + CC(=O)c1c(C)c2cnc(Nc3ccc(N4CCNCC4)cn3)nc2n(C2CCCC2)c1=O [Palbociclib] (partner 0.5 µM)
Method in brief: as §1

[4] = compound: CC(=O)Nc1cccc(-n2c(=O)n(C3CC3)c(=O)c3c(Nc4ccc(I)cc4F)n(C)c(=O)c(C)c32)c1 [Trametinib] + Cc1nc(NC(=O)N2CCC[C@H]2C(N)=O)sc1-c1ccnc(C(C)(C)C(F)(F)F)c1 [Alpelisib] (partner 2 µM)
Method in brief: as §1

With NCI-H1395 the relative viability ([1]; first compound 0.0025 µM) was 0.44, the relative viability ([1]; first compound 0.007906 µM) was 0.662 and the relative viability ([1]; first compound 0.025 µM) was 0.454. The relative viability ([1]; first compound 0.07906 µM) was 0.378, the relative viability ([1]; first compound 0.25 µM) was 0.345 and the relative viability ([2]; first compound 0.02 µM) was 0.679. It also gave a relative viability ([2]; first compound 0.06325 µM) of 0.725, a relative viability ([2]; first compound 0.2 µM) of 0.564 and a relative viability ([2]; first compound 0.6325 µM) of 0.662. It also gave a relative viability ([2]; first compound 2 µM) of 0.604, a relative viability ([3]; first compound 0.0025 µM) of 0.56 and a relative viability ([3]; first compound 0.007906 µM) of 0.562. For the same cell line, the relative viability ([3]; first compound 0.025 µM) was 0.517, the relative viability ([3]; first compound 0.07906 µM) was 0.567 and the relative viability ([3]; first compound 0.25 µM) was 0.489. The relative viability ([4]; first compound 0.0025 µM) was 1.02, the relative viability ([4]; first compound 0.007906 µM) was 0.903 and the relative viability ([4]; first compound 0.025 µM) was 1.39. It also gave a relative viability ([4]; first compound 0.07906 µM) of 1.09 and a relative viability ([4]; first compound 0.25 µM) of 0.652.

NCI-H1355 gave a relative viability ([1]; first compound 0.0025 µM) of 0.607, a relative viability ([1]; first compound 0.007906 µM) of 0.528 and a relative viability ([1]; first compound 0.025 µM) of 0.337. For the same cell line, the relative viability ([1]; first compound 0.07906 µM) was 0.373, the relative viability ([1]; first compound 0.25 µM) was 0.326 and the relative viability ([2]; first compound 0.02 µM) was 0.581. It also gave a relative viability ([2]; first compound 0.06325 µM) of 0.581, a relative viability ([2]; first compound 0.2 µM) of 0.653 and a relative viability ([2]; first compound 0.6325 µM) of 0.513. The relative viability ([2]; first compound 2 µM) was 0.534, the relative viability ([3]; first compound 0.0025 µM) was 0.353 and the relative viability ([3]; first compound 0.007906 µM) was 0.321. It also gave a relative viability ([3]; first compound 0.025 µM) of 0.217, a relative viability ([3]; first compound 0.07906 µM) of 0.225 and a relative viability ([3]; first compound 0.25 µM) of 0.224. For the same cell line, the relative viability ([4]; first compound 0.0025 µM) was 0.68, the relative viability ([4]; first compound 0.007906 µM) was 0.627 and the relative viability ([4]; first compound 0.025 µM) was 0.356. The relative viability ([4]; first compound 0.07906 µM) was 0.388 and the relative viability ([4]; first compound 0.25 µM) was 0.352.

NCI-H1666 was tested, and the relative viability ([1]; first compound 0.0025 µM) was 0.812, the relative viability ([1]; first compound 0.007906 µM) was 0.841 and the relative viability ([1]; first compound 0.025 µM) was 0.755. It also gave a relative viability ([1]; first compound 0.07906 µM) of 0.666, a relative viability ([1]; first compound 0.25 µM) of 0.506 and a relative viability ([2]; first compound 0.02 µM) of 0.902. For the same cell line, the relative viability ([2]; first compound 0.06325 µM) was 0.909, the relative viability ([2]; first compound 0.2 µM) was 1.06 and the relative viability ([2]; first compound 0.6325 µM) was 0.926. For the same cell line, the relative viability ([2]; first compound 2 µM) was 0.991, the relative viability ([3]; first compound 0.0025 µM) was 0.695 and the relative viability ([3]; first compound 0.007906 µM) was 0.662. It also gave a relative viability ([3]; first compound 0.025 µM) of 0.665, a relative viability ([3]; first compound 0.07906 µM) of 0.66 and a relative viability ([3]; first compound 0.25 µM) of 0.686. For the same cell line, the relative viability ([4]; first compound 0.0025 µM) was 0.697, the relative viability ([4]; first compound 0.007906 µM) was 0.501 and the relative viability ([4]; first compound 0.025 µM) was 0.465. It also gave a relative viability ([4]; first compound 0.07906 µM) of 0.331 and a relative viability ([4]; first compound 0.25 µM) of 0.306.

HCC-78 showed a relative viability ([1]; first compound 0.0025 µM) of 0.359, a relative viability ([1]; first compound 0.007906 µM) of 0.265 and a relative viability ([1]; first compound 0.025 µM) of 0.23. The relative viability ([1]; first compound 0.07906 µM) was 0.294, the relative viability ([1]; first compound 0.25 µM) was 0.25 and the relative viability ([2]; first compound 0.02 µM) was 0.431. For the same cell line, the relative viability ([2]; first compound 0.06325 µM) was 0.46, the relative viability ([2]; first compound 0.2 µM) was 0.381 and the relative viability ([2]; first compound 0.6325 µM) was 0.424. The relative viability ([2]; first compound 2 µM) was 0.427, the relative viability ([3]; first compound 0.0025 µM) was 0.452 and the relative viability ([3]; first compound 0.007906 µM) was 0.46. For the same cell line, the relative viability ([3]; first compound 0.025 µM) was 0.398, the relative viability ([3]; first compound 0.07906 µM) was 0.457 and the relative viability ([3]; first compound 0.25 µM) was 0.449. It also gave a relative viability ([4]; first compound 0.0025 µM) of 0.304, a relative viability ([4]; first compound 0.007906 µM) of 0.242 and a relative viability ([4]; first compound 0.025 µM) of 0.226. For the same cell line, the relative viability ([4]; first compound 0.07906 µM) was 0.205 and the relative viability ([4]; first compound 0.25 µM) was 0.224.

With H3255 the relative viability ([1]; first compound 0.0025 µM) was 0.512, the relative viability ([1]; first compound 0.007906 µM) was 0.334 and the relative viability ([1]; first compound 0.025 µM) was 0.288. For the same cell line, the relative viability ([1]; first compound 0.07906 µM) was 0.238, the relative viability ([1]; first compound 0.25 µM) was 0.346 and the relative viability ([2]; first compound 0.02 µM) was 1.03. The relative viability ([2]; first compound 0.2 µM) was 0.876, the relative viability ([2]; first compound 0.6325 µM) was 0.749 and the relative viability ([2]; first compound 2 µM) was 0.774. The relative viability ([3]; first compound 0.0025 µM) was 0.339, the relative viability ([3]; first compound 0.007906 µM) was 0.356 and the relative viability ([3]; first compound 0.025 µM) was 0.357. For the same cell line, the relative viability ([3]; first compound 0.07906 µM) was 0.342, the relative viability ([3]; first compound 0.25 µM) was 0.365 and the relative viability ([4]; first compound 0.0025 µM) was 0.684. For the same cell line, the relative viability ([4]; first compound 0.007906 µM) was 0.566, the relative viability ([4]; first compound 0.025 µM) was 0.503 and the relative viability ([4]; first compound 0.07906 µM) was 0.41. For the same cell line, the relative viability ([4]; first compound 0.25 µM) was 0.317.

NCI-H23 showed a relative viability ([1]; first compound 0.0025 µM) of 0.544, a relative viability ([1]; first compound 0.007906 µM) of 0.74 and a relative viability ([1]; first compound 0.025 µM) of 0.293. The relative viability ([1]; first compound 0.07906 µM) was 0.231, the relative viability ([1]; first compound 0.25 µM) was 0.172 and the relative viability ([2]; first compound 0.02 µM) was 0.579. For the same cell line, the relative viability ([2]; first compound 0.06325 µM) was 0.518, the relative viability ([2]; first compound 0.2 µM) was 0.537 and the relative viability ([2]; first compound 0.6325 µM) was 0.612. It also gave a relative viability ([2]; first compound 2 µM) of 0.474, a relative viability ([3]; first compound 0.0025 µM) of 0.472 and a relative viability ([3]; first compound 0.007906 µM) of 0.414. It also gave a relative viability ([3]; first compound 0.025 µM) of 0.268, a relative viability ([3]; first compound 0.07906 µM) of 0.209 and a relative viability ([3]; first compound 0.25 µM) of 0.175. The relative viability ([4]; first compound 0.0025 µM) was 0.635, the relative viability ([4]; first compound 0.007906 µM) was 0.509 and the relative viability ([4]; first compound 0.025 µM) was 0.264. For the same cell line, the relative viability ([4]; first compound 0.07906 µM) was 0.349 and the relative viability ([4]; first compound 0.25 µM) was 0.208.

Work on NCI-H1944 yielded a relative viability ([1]; first compound 0.0025 µM) of 0.193, a relative viability ([1]; first compound 0.007906 µM) of 0.177 and a relative viability ([1]; first compound 0.025 µM) of 0.164. For the same cell line, the relative viability ([1]; first compound 0.07906 µM) was 0.144, the relative viability ([1]; first compound 0.25 µM) was 0.145 and the relative viability ([2]; first compound 0.02 µM) was 0.471. It also gave a relative viability ([2]; first compound 0.06325 µM) of 0.5, a relative viability ([2]; first compound 0.6325 µM) of 0.568 and a relative viability ([2]; first compound 2 µM) of 0.528. It also gave a relative viability ([3]; first compound 0.0025 µM) of 0.316, a relative viability ([3]; first compound 0.007906 µM) of 0.246 and a relative viability ([3]; first compound 0.025 µM) of 0.223. It also gave a relative viability ([3]; first compound 0.07906 µM) of 0.207, a relative viability ([3]; first compound 0.25 µM) of 0.163 and a relative viability ([4]; first compound 0.0025 µM) of 0.716. It also gave a relative viability ([4]; first compound 0.007906 µM) of 0.603, a relative viability ([4]; first compound 0.025 µM) of 0.532 and a relative viability ([4]; first compound 0.07906 µM) of 0.463. It also gave a relative viability ([4]; first compound 0.25 µM) of 0.325.

Work on NCI-H1651 yielded a relative viability ([1]; first compound 0.0025 µM) of 0.487, a relative viability ([1]; first compound 0.007906 µM) of 0.384 and a relative viability ([1]; first compound 0.025 µM) of 0.404. The relative viability ([1]; first compound 0.07906 µM) was 0.284, the relative viability ([1]; first compound 0.25 µM) was 0.217 and the relative viability ([2]; first compound 0.02 µM) was 0.656. For the same cell line, the relative viability ([2]; first compound 0.06325 µM) was 0.573, the relative viability ([2]; first compound 0.2 µM) was 0.571 and the relative viability ([2]; first compound 0.6325 µM) was 0.563. The relative viability ([2]; first compound 2 µM) was 0.537, the relative viability ([3]; first compound 0.0025 µM) was 0.489 and the relative viability ([3]; first compound 0.007906 µM) was 0.501. The relative viability ([3]; first compound 0.025 µM) was 0.51, the relative viability ([3]; first compound 0.07906 µM) was 0.459 and the relative viability ([3]; first compound 0.25 µM) was 0.432. The relative viability ([4]; first compound 0.0025 µM) was 0.901, the relative viability ([4]; first compound 0.007906 µM) was 0.864 and the relative viability ([4]; first compound 0.025 µM) was 0.775. For the same cell line, the relative viability ([4]; first compound 0.07906 µM) was 0.597 and the relative viability ([4]; first compound 0.25 µM) was 0.66.
